Reference: patent US10888555B2 (CONARIS RESEARCH INSTITUTE AG, priority 2013, dated 2021)
“Also recorded” adds a separate entry of the source.

Key:
[1] = test system: C57BL/6J mice; assay: Acute tunicamycin-induced NAFLD/NASH model: histological liver damage score; type: in vivo, mouse; conditions: 60 mg/kg/d in drinking water, 3 mice with and 3 without NAM, 48 h after tunicamycin 2 μg/g i.p., FIG. 4
Description: In order to extend the findings of von Schönfels et al. 2014 (Liver Int. doi: 10.1111/liv.12476) with NA in a chronic model of NAFLD, the effect of NAM was investigted in an acute murine model of NASH (Lee et al. 2012, Toxicol. Lett. 211:29). C57BL/6J mice (n=6; age: 12-13 weeks) were injected intraperitoneally with tunicamycin (TM; 2 μg/g body weight). After 48 h, the mice were sacrificed and liver tissue was collected for histological analysis of signs of NAFLD/NASH as described previously (Lee et al. 2012, Toxicol. Lett. 211:29). NAM was administered to three of the six mice in the drinking water from 2 days before the TM challenge until the end of the experiment. NAM was administered at 0.4 g/l, corresponding to approximately 60 mg/kg/d (assumptions from general averages: body weight of a mouse: 20 g; water intake: 3 mL/mouse/d; 3 mL with a concentration of 0.4 g/L contained 1.2 mg NAM, resulting in a dose of approximately 60 mg/kg/d).
Paraffin-embedded liver tissue sections (3 μm) from mice after TM challenge were subjected to hematoxylin/eosin staining and scored in a blinded manner. Hepatic steatosis, hepatocyte ballooning and inflammation were determined in a scoring system modified from Brunt 2001 (Semin. Liver Dis. 21:3). The stage scores were based on liver fibrosis. The 0-3 grading includes: 0, none; 1, mild; 2, moderate; and 3, severe.

[2] = cited from earlier work

## NC(=O)c1cccnc1 [NAM, nicotinamide]
[1]
  tunicamycin-induced NAFLD/NASH liver damage score: small, but significant reduction; also recorded: moderate, but significant protection
[2]; adults, SCF/CS/NUT/UPPLEV/39
  recommended maximum nutritional doses: up to 900 mg/d

## O=C(O)c1cccnc1 [nicotinic acid]
[2]; Carlson 2005, German Federal Institute for Risk Assessment
  doses above which side effects including flush, tachycardia, blood pressure dysregulation and diarrhea have to be anticipated: 100 to 300 mg/day
[2]; adults, European Scientific Committee on Food
  tolerable upper intake level without anticipated side effects: 10 mg/day
